Test results as given in patent EP0024348A1, “Substituted 6-Phenethyl-and phenylethenyl-3,4,5,6-tetrahydro-4-hydroxytetraydropyran-2-ones in the4-R trans stereoisomeric forms and the corresponding dihydroxy acids, process for preparing and pharmaceutical composition comprising them” (Merck & Co., Inc., priority 1979, dated 1981).
pIC50: −log10 of the molar value. Counter-ions that a name gives are not always drawn.

Target: T1, 3-hydroxy-3-methylglutaryl coenzyme A reductase (Rattus norvegicus, UniProt P51639)
T1 sequence (P51639 1-887): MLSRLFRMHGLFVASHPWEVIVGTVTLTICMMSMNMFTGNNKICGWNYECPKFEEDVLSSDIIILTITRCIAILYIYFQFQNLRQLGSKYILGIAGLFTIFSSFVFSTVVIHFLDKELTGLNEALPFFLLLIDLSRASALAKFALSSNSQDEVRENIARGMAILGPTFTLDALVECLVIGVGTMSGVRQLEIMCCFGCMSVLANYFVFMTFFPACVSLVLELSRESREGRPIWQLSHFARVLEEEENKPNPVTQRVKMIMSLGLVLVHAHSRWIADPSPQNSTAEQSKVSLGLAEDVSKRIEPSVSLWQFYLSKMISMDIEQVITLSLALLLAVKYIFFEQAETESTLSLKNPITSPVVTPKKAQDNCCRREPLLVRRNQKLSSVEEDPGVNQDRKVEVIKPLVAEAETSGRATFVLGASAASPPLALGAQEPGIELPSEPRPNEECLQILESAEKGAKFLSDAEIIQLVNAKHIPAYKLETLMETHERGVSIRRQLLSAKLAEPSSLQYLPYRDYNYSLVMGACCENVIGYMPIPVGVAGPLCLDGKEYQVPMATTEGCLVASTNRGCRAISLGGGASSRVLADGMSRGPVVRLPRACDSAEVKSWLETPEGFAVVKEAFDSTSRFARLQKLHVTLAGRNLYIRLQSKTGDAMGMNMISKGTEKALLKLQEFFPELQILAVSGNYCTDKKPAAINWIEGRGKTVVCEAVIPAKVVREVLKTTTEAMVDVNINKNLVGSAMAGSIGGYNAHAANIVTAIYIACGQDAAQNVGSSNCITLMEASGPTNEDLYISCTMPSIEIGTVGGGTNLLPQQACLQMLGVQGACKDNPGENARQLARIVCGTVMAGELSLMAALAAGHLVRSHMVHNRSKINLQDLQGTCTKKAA
Assay: Method A: in vitro enzyme inhibition by the method of Knauss et al.
Format: biochemical
Text: The inhibitory activity of these compounds for the biosynthesis of cholesterol has been measured by two methods. The experimental method A has been realized in vitro by the method of H. J. Knauss, et al., J. Biol. Chem., 234, 2835 (1959) and the activity was expressed as the molar concentration IC50(M) necessary for the inhibition of 50% of the enzymatic activity. The experimental method B was the method of A. A. Kandutsch, et al., J. Biol. Chem., 248, 8403 (1973) for measuring the quantity of ^14C-cholesterol biosynthesis from acetic acid-^14C in mouse L cells. The activity is expressed for inhibition of 50% of the biosynthesis of cholesterol.

pIC50 (test by method A)	potency compared with compactin (both tested as the sodium salts of their corresponding hydroxy acid forms)	pIC50 (tested as the sodium salts of their corresponding hydroxy acid forms, method not restated)	Compound
7.17			O=C1C[C@H](O)C[C@@H](CCc2c(Cl)cc(Cl)cc2OCc2ccccc2)O1 (single isomer, unassigned) [Example 14, (+)-Trans-6-[2-(2,4-dichloro-6-phenylmethoxyphenyl)ethyl]-3,4,5,6-tetrahydro-4-hydroxy-2H-pyran-2-one]
	greater than that of compactin	~8.55	O=C(O)C[C@H](O)C[C@H](O)/C=C/c1c(Cl)cc(Cl)cc1-c1ccc(F)cc1 (single isomer, unassigned) [Example 38, (+)-(E)-(3R*, 5S*)-7-(3,5-dichloro-4'-fluoro[1,1'-biphenyl]-2y1)-3,5-dihydroxy-6-heptenoic acid, ammonium salt]
